# Test results taken from patent US7632863B2, “3,4,5,4′-tetramethoxyl-α,β-diphenylethane-3′-O-sodium sulphate and its use” (The Jian Cell Biomedical Research Co., Ltd., priority 2007, dated 2009).
# Where two headings read alike, the source gives them in different places.
# Legend:
# [1] = test system: S180 sarcoma; settings: Dosage 1 mg/kg, i.v., S180 sarcoma-bearing mice
# From the text: (§1) (1) Sample: 3,4,5,4′-tetramethoxyl-α,β-diphenylethane-3′-O-sodium sulphate (AS) provided by Zhejiang Cell Biomedical Research Co., Ltd., and prepared by the process in Example One. Dissolved by physiological saline for the concentration needed.
# (2) Cisplatin: Cisplatin for injection (DDP), Qilu Pharmaceutical Co., Ltd. Batch No.: 5120282DC. Dissolved by physiological saline for preparation.
# (3) Control product: Cyclophosphamide for injection (CTX), Jiangsu Hengrui Pharmaceutical Inc. Co. Batch No.: 04123021 Dissolved by physiological saline for preparation.
# (§2) (1) KM mouse bearing S180 sarcoma.
# (2) 70 KM mice, female, weighting 18-22 g, provided by Zhejing College of Traditional Chinese Medicine.
# (1) Drawing ascites under aseptic condition from mouse bearing S180 sarcoma, diluting with physiologic saline 1:3, giving subcutaneous inoculation in the armpit of the right forelimb of the KM mice with 0.2 ml each; dividing the mice into 7 groups randomly the next day, 10 in each group.
# (§3) (2) Administering drug to the mice by weight the third day of inoculation, intravenous administration 0.5 ml/20 g […], by weight, and putting them to death on the 11th day after inoculation, weighing the tumor and calculating the rate of tumor inhibition.
# (§4) (3) dosage (mg/kg/d) and means of administration:
# (§5) AS: 50 mg/kg, tail vein injection
# (§6) AS: 100 mg/kg, tail vein injection
# (§7) AS: 200 mg/kg, tail vein injection
# DDP: 1 mg/kg, tail vein injection
# AS+DDP: 50 mg/kg+1 mg/kg, tail vein injection
# (§8) CTX: 30 mg/kg, tail vein injection
# (§9) Setting up another blank control group, tail vein injection of 0.9% NaCl 0.5 ml.
# (§10) (4) Judging the result with the following formula: […]
# [2] = test system: S180 sarcoma; settings: Dosage 1 mg/kg, i.v., S180 sarcoma-bearing mice; remark: listed apart in the source
# From the text: as §1
# (2) Control product: Cyclophosphamide for injection (CTX), Jiangsu Hengrui Pharmaceutical Inc. Co. Batch No.: 04123021 Dissolved by physiological saline for preparation.
# as §2
# (2) 50 KM mice, female, weighting 18-22 g, provided by Zhejing College of Traditional Chinese Medicine.
# (1) Drawing ascites under aseptic condition from mouse bearing S180 sarcoma, diluting with physiologic saline 1:3, giving subcutaneous inoculation in the armpit of the right forelimb of the KM mice with 0.2 ml each; dividing the mice into 5 groups randomly the next day, 10 in each group.
# as §3, §4, §5, §6, §7, §8, §9, §10
# [3] = test system: Lewis lung cancer; assay: Joint administration of AS and DDP, murine model of Lewis lung cancer (Example Five); format: in vivo, C57BL/6J mice; settings: Dosage 30 mg/kg, i.p., mice bearing Lewis lung cancer
# From the text: (1) Sample: 3,4,5,4′-tetramethoxyl-α,β-diphenylethane-3′-O-sodium sulphate (AS), raw material medicine, provided by Zhejiang Cell Biomedical Research Co., Ltd., and prepared by the process in Example One. Batch No.: 061025. Dissolved by physiological saline for the concentration needed.
# (2) Cisplatin: Cisplatin for injection (DDP), Qilu Pharmaceutical Co., Ltd. Batch No.: 5120282DC; Dissolved by physiological saline for preparation
# (3) Control product: Cyclophosphamide for injection (CTX), Jiangsu Hengrui Pharmaceutical Inc. Co. Batch No.: 04123021. Dissolved by physiological saline for preparation.
# (1) C57BL/6J mouse bearing Lewis lung cancer
# (2) 70 C57BL/6J mice, female, weighing 17-21 g. Provided by the animal house of Zhejiang Cell Biomedical Research Co., Ltd.
# (1) Taking tumor from C57BL/6J mouse under aseptic condition, grinding and diluting it by physiological saline 1:3 (weight:volume), and giving hypodermic inoculation 0.2 ml per mouse in the armpit of the right forelimb of each mouse. dividing the mice into 7 groups randomly the next day, 10 in each group.
# (2) After inoculation, waiting till the tumor has grown to the accessible size, administering medicine according to body weight, 0.5 ml/20 g intravenous, for 11 days, putting the mice to death on the 19th after inoculation, taking out and weighing the tumor, and calculating the tumor inhibiting rate.
# as §10
smiles,measurement,setting,value
"O=P1(N(CCCl)CCCl)NCCCO1 (stereo not shown) [CTX, Cyclophosphamide, reference compound]",0 d weight,[1],21.18 ± 0.64 g
same,11 d weight without tumor,[1],26.28 ± 1.72 g
same,Tumor inhibiting rate %,[1],69%
same,Tumor weight,[1],0.90 ± 0.26 g
same,0 d weight,[2],21.18 ± 0.64 g
same,11 d weight without tumor,[2],26.28 ± 1.72 g
same,Tumor inhibiting rate %,[2],69%
same,Tumor weight,[2],0.90 ± 0.26 g
same,Tumor inhibiting rate %,[3],64.3%
same,Tumor weight,[3],1.68 ± 0.15 g
